From patent publication US20240398795A1, “COMBINATION THERAPIES USING PRMT5 INHIBITORS FOR THE TREATMENT OF CANCER” (MIRATI THERAPEUTICS, INC., priority 2021, published 2024)

Key:
Format in all cases: in vivo, mice
[1] = system: MIAPaCa-2 xenograft tumors; assay: MIAPaCa-2 xenograft tumor volume study; settings: n=5, MRTX1719 100 mg/kg PO QD, Docetaxel 15 mg/kg IP Q7D, combination 100 mg PO QD + 15 mg/kg IP Q7D
Protocol: (§1) Immunodeficient female nu/nu or BALBC/Nude mice were subcutaneously implanted with 3×10^6 to 1×10^7 human derived cancer cells depending on the cell line xenograft model. Tumors were measured using calipers until they reached approximately 100-150 mm^3. […] Tumor volume was measured twice a week (n=5/treatment group). Average tumor volume and standard error of the mean was calculated and plotted at each study day in GraphPad.
This example was carried out according to the study procedure described above. The PRMT5 inhibitor was MRTX1719 administered at 100 mg/kg once a day (QD). […] 307 of the International patent publication No. WO 2021/050915 A1, published 18 Mar. 2021, incorporated by reference in its entirety.
Substantially the same procedure of Example 1 was repeated except with mice bearing MIAPaCa-2 xenograft tumors.

SW1573 xenograft tumors = assay: SW1573 xenograft tumor volume study; settings: n=5, MRTX1719 50 mg/kg PO QD, Docetaxel 15 mg/kg IP Q7D, combination 50 mg PO QD + 15 mg/kg IP Q7D
Protocol: as §1
(§2) This example was carried out according to the study procedure described above. […] MRTX1719 is (2M)-2-(4-(4-(aminomethyl)-1-oxo-1,2-dihydrophthalazin-6-yl)-1-methyl-1H-pyrazol-5-yl)-4-chloro-6-cyclopropoxy-3-fluorobenzonitrile, disclosed as Example 16-8 at p. 307 of the International patent publication No. WO 2021/050915 A1, published 18 Mar. 2021, incorporated by reference in its entirety.
Substantially the same procedure as Example 1 was repeated except with mice bearing SW1573 xenograft tumors.

HCC4006 xenograft tumors = assay: HCC4006 xenograft tumor volume study; settings: n=5, MRTX1719 100 mg/kg PO QD, Docetaxel 10 mg/kg IP Q7D, combination 100 mg PO QD + 10 mg/kg IP Q7D
Protocol: as §1
(§3) This example was carried out according to the study procedure described above. The PRMT5 inhibitor was MRTX1719 administered at 100 mg/kg once a day (QD). MRTX1719 is (2M)-2-(4-(4-(aminomethyl)-1-oxo-1,2-dihydrophthalazin-6-yl)-1-methyl-1H-pyrazol-5-yl)-4-chloro-6-cyclopropoxy-3-fluorobenzonitrile, disclosed as Example 16-8 at p. 307 of the International patent publication No. WO 2021/050915 A1, published 18 Mar. 2021, incorporated by reference in its entirety.
Substantially the same procedure as Example 1 was repeated except with mice bearing HCC4006 xenograft tumors.

LU99 xenograft tumors = assay: LU99 xenograft tumor volume study; settings: n=5, MRTX1719 50 mg/kg PO QD, Docetaxel 15 mg/kg IP Q7D, combination 50 mg PO QD + 15 mg/kg IP Q7D
Protocol: as §1, §2
Substantially the same procedure of Example 1 was repeated except with mice bearing LU99 xenograft tumors.

H1650 xenograft tumors = assay: NCI-H1650 xenograft tumor volume study; settings: n=5, MRTX1719 100 mg/kg PO QD, Docetaxel 10 mg/kg IP Q7D, combination 100 mg/kg PO QD + 10 mg/kg IP Q7D
Protocol: as §1, §3

[2] = system: NCI-H2228 xenograft tumors; assay: NCI-H2228 xenograft tumor volume study; settings: n=5, MRTX1719 100 mg/kg PO QD, Docetaxel 10 mg/kg IP Q7D, combination 100 mg PO QD + 10 mg/kg IP Q7D
Protocol: as §1, §3
Substantially the same procedure as Example 1 was repeated except with mice bearing NCI-H2228 xenograft tumors.

A549 xenograft tumors = assay: A549 xenograft tumor volume study; settings: n=5, MRTX1719 100 mg/kg PO QD, Docetaxel 15 mg/kg IP Q7D, combination 100 mg PO QD + 15 mg/kg IP Q7D
Protocol: as §1, §3
Substantially the same procedure as Example 1 was repeated except with mice bearing A549 xenograft tumors.

KP4 xenograft tumors = assay: KP4 xenograft tumor volume study; settings: n=5, Docetaxel 15 mg/kg IP Q7D, combination 100 mg PO QD + 15 mg/kg IP Q7D
Protocol: as §1, §3
Substantially the same procedure of Example 1 was repeated except with mice bearing KP4 xenograft tumors.

## CC(=O)O[C@@]12CO[C@@H]1C[C@H](O)[C@@]1(C)C(=O)[C@H](O)C3=C(C)[C@@H](OC(=O)[C@H](O)[C@@H](NC(=O)OC(C)(C)C)c4ccccc4)C[C@@](O)([C@@H](OC(=O)c4ccccc4)[C@H]21)C3(C)C [Docetaxel, docetaxel]
[1]; Day 1
  Tumor Volume, Mean: 133 mm^3
[1]; Day 5
  Tumor Volume, Mean: 187 mm^3
[1]; Day 13
  Tumor Volume, Mean: 268 mm^3
[1]; Day 16
  Tumor Volume, Mean: 315 mm^3
[1]; Day 19
  Tumor Volume, Mean: 375 mm^3
[1]; Day 22
  Tumor Volume, Mean: 415 mm^3
SW1573 xenograft tumors; Day 0
  Tumor Volume, Mean: 141 mm^3
SW1573 xenograft tumors; Day 3
  Tumor Volume, Mean: 148 mm^3
SW1573 xenograft tumors; Day 8
  Tumor Volume, Mean: 191 mm^3
SW1573 xenograft tumors; Day 10
  Tumor Volume, Mean: 231 mm^3
SW1573 xenograft tumors; Day 14
  Tumor Volume, Mean: 281 mm^3
SW1573 xenograft tumors; Day 17
  Tumor Volume, Mean: 302 mm^3
SW1573 xenograft tumors; Day 21
  Tumor Volume, Mean: 352 mm^3
HCC4006 xenograft tumors; Day 0
  Tumor Volume, Mean: 126 mm^3
HCC4006 xenograft tumors; Day 2
  Tumor Volume, Mean: 151 mm^3
HCC4006 xenograft tumors; Day 5
  Tumor Volume, Mean: 139 mm^3
HCC4006 xenograft tumors; Day 9
  Tumor Volume, Mean: 140 mm^3
HCC4006 xenograft tumors; Day 12
  Tumor Volume, Mean: 150 mm^3
HCC4006 xenograft tumors; Day 16
  Tumor Volume, Mean: 143 mm^3
HCC4006 xenograft tumors; Day 20
  Tumor Volume, Mean: 137 mm^3
LU99 xenograft tumors; Day 0
  Tumor Volume, Mean: 153 mm^3
LU99 xenograft tumors; Day 5
  Tumor Volume, Mean: 184 mm^3
LU99 xenograft tumors; Day 8
  Tumor Volume, Mean: 299 mm^3
LU99 xenograft tumors; Day 12
  Tumor Volume, Mean: 459 mm^3
LU99 xenograft tumors; Day 15
  Tumor Volume, Mean: 757 mm^3
LU99 xenograft tumors; Day 20
  Tumor Volume, Mean: 1057 mm^3
LU99 xenograft tumors; Day 22
  Tumor Volume, Mean: 1255 mm^3
LU99 xenograft tumors; Day 26
  Tumor Volume, Mean: 1722 mm^3
H1650 xenograft tumors; Day 0
  Tumor Volume, Mean: 147 mm^3
H1650 xenograft tumors; Day 3
  Tumor Volume, Mean: 291 mm^3
H1650 xenograft tumors; Day 7
  Tumor Volume, Mean: 425 mm^3
H1650 xenograft tumors; Day 10
  Tumor Volume, Mean: 660 mm^3
H1650 xenograft tumors; Day 14
  Tumor Volume, Mean: 710 mm^3
H1650 xenograft tumors; Day 17
  Tumor Volume, Mean: 770 mm^3
H1650 xenograft tumors; Day 20
  Tumor Volume, Mean: 826 mm^3
[2]; Day 0
  Tumor Volume, Mean: 121 mm^3
[2]; Day 3
  Tumor Volume, Mean: 100 mm^3
[2]; Day 6
  Tumor Volume, Mean: 73 mm^3
[2]; Day 9
  Tumor Volume, Mean: 76 mm^3
[2]; Day 13
  Tumor Volume, Mean: 68 mm^3
[2]; Day 16
  Tumor Volume, Mean: 42 mm^3
[2]; Day 20
  Tumor Volume, Mean: 15 mm^3
[2]; Day 23
  Tumor Volume, Mean: 10 mm^3
[2]; Day 27
  Tumor Volume, Mean: 12 mm^3
A549 xenograft tumors; Day 1
  Tumor Volume, Mean: 118 mm^3
A549 xenograft tumors; Day 5
  Tumor Volume, Mean: 128 mm^3
A549 xenograft tumors; Day 8
  Tumor Volume, Mean: 156 mm^3
A549 xenograft tumors; Day 12
  Tumor Volume, Mean: 160 mm^3
A549 xenograft tumors; Day 15
  Tumor Volume, Mean: 169 mm^3
A549 xenograft tumors; Day 19
  Tumor Volume, Mean: 167 mm^3
A549 xenograft tumors; Day 22
  Tumor Volume, Mean: 163 mm^3
A549 xenograft tumors; Day 26
  Tumor Volume, Mean: 162 mm^3
A549 xenograft tumors; Day 29
  Tumor Volume, Mean: 189 mm^3
A549 xenograft tumors; Day 34
  Tumor Volume, Mean: 239 mm^3
KP4 xenograft tumors; Day 0, MRTX1719 100 mg/kg PO QD
  Tumor Volume, Mean: 144 mm^3
KP4 xenograft tumors; Day 5, MRTX1719 100 mg/kg PO QD
  Tumor Volume, Mean: 121 mm^3
KP4 xenograft tumors; Day 7, MRTX1719 100 mg/kg PO QD
  Tumor Volume, Mean: 105 mm^3
KP4 xenograft tumors; Day 11, MRTX1719 100 mg/kg PO QD
  Tumor Volume, Mean: 90 mm^3
KP4 xenograft tumors; Day 14, MRTX1719 100 mg/kg PO QD
  Tumor Volume, Mean: 82 mm^3
KP4 xenograft tumors; Day 19, MRTX1719 100 mg/kg PO QD
  Tumor Volume, Mean: 126 mm^3
KP4 xenograft tumors; Day 21, MRTX1719 100 mg/kg PO QD
  Tumor Volume, Mean: 272 mm^3
KP4 xenograft tumors; Day 25
  Tumor Volume, Mean: 482 mm^3
KP4 xenograft tumors; Day 28
  Tumor Volume, Mean: 592 mm^3
KP4 xenograft tumors; Day 32
  Tumor Volume, Mean: 785 mm^3
KP4 xenograft tumors; Day 35
  Tumor Volume, Mean: 895 mm^3
